Results on 5 compounds are retold here after PubChem BioAssay AID1918945 (Molecular Pharmacology Branch, DTP, NCI, 2023).

SMILES strings stand for the structures. Values joined by “and” are separate entries in the source; they are usually repeats but may differ in a detail not shown here. Equal values may be shown once.

The IC50 is the point on the concentration scale where inhibition reaches its midpoint. One may read the viability, T/C as the ratio of treated to control.

The test relates to 883617-216-R-J1-PDC complex spheroid viability. Put plainly: Anticancer human tumor 883617-216-R-J1-PDC patient-derived bladder carcinoma cell line growth inhibition. Conditions: for viability, T/C: stronger effect = lower value. The method, boiled down:
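Multicellular complex spheroids of tumor cells with human endothelial cells (HUVEC) and mesenchymal stem cells; the LSD1 inhibitor iadademstat was combined with standard-of-care or investigational agents. Top concentration at or near clinical Cmax, half-log dilutions; final DMSO ≤0.25%.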

Where [1] appears, read: curve of first compound, second compound 0.1 µM.
The mark [2] stands for this setting: curve of first compound, second compound 0.316 µM.
[3] abbreviates: curve of first compound, second compound 1 µM.
Setting [4] is: curve of first compound, second compound 3.16 µM.
Where [5] appears, read: curve of first compound, second compound 10 µM.
The mark [6] stands for this setting: second compound 0.1 µM, first compound 0.00949 µM.
Where [7] appears, read: second compound 0.1 µM, first compound 0.03 µM.
[8] abbreviates: second compound 0.1 µM, first compound 0.0949 µM.
The mark [9] stands for this setting: second compound 0.1 µM, first compound 0.3 µM.
The mark [10] stands for this setting: second compound 0.316 µM, first compound 0.00949 µM.
[11] abbreviates: second compound 0.316 µM, first compound 0.03 µM.
The mark [12] stands for this setting: second compound 0.316 µM, first compound 0.0949 µM.
The mark [13] stands for this setting: second compound 0.316 µM, first compound 0.3 µM.
Setting [14] is: second compound 1 µM, first compound 0.00949 µM.
[15] abbreviates: second compound 1 µM, first compound 0.03 µM.
[16] abbreviates: second compound 1 µM, first compound 0.0949 µM.
Where [17] appears, read: second compound 1 µM, first compound 0.3 µM.
[18] abbreviates: second compound 3.16 µM, first compound 0.00949 µM.
Where [19] appears, read: second compound 3.16 µM, first compound 0.03 µM.
[20] abbreviates: second compound 3.16 µM, first compound 0.0949 µM.
[21] abbreviates: second compound 3.16 µM, first compound 0.3 µM.
Setting [22] is: second compound 10 µM, first compound 0.00949 µM.
Where [23] appears, read: second compound 10 µM, first compound 0.03 µM.
Where [24] appears, read: second compound 10 µM, first compound 0.0949 µM.
Where [25] appears, read: second compound 10 µM, first compound 0.3 µM.
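Further: exposure lasted seven days after three days of spheroid growth.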
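Wherever viability, T/C is given: 100% = DMSO vehicle control luminescence.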

Regarding `CCc1c2c(nc3ccc(O)cc13)-c1cc3c(c(=O)n1C2)COC(=O)[C@]3(O)CC` + NC1CC1c1ccc(-c2cccc(O)c2)cc1, the IC50 under setting [1] is less than 0.949 nM; the half-maximal inhibitory concentration (IC50) under setting [2] was less than 0.949 nM; the IC50 under setting [3] was less than 0.949 nM; the IC50 under setting [4] was less than 0.949 nM; the concentration for half-maximal inhibition (IC50) under setting [5] was less than 0.949 nM. The viability, T/C was 25.1% (second compound 0.1 µM, first compound 0.000949 µM); 20.4% (second compound 0.1 µM, first compound 0.003 µM); 17.5% under setting [6]; 14% under setting [7]; 0.36% under setting [8]; 0.15% under setting [9]. For the same compound, the viability, T/C by setting is: (second compound 0.316 µM, first compound 0.000949 µM) 25.6%; (second compound 0.316 µM, first compound 0.003 µM) 21.7%; under setting [10], 19.9%; under setting [11], 13%; under setting [12], 0.27%; under setting [13], 0.12%. Besides, the viability, T/C was 25.8% (second compound 1 µM, first compound 0.000949 µM); 21.6% (second compound 1 µM, first compound 0.003 µM); 24.4% under setting [14]; 14.2% under setting [15]; 0.38% under setting [16]; 0.88% under setting [17]. In addition, the viability, T/C (second compound 3.16 µM, first compound 0.000949 µM) is 21.6%; the viability, T/C (second compound 3.16 µM, first compound 0.003 µM) is 18.4%; the viability, T/C under setting [18] was 19.6%; the viability, T/C under setting [19] is 14.4%; the viability, T/C under setting [20] was 0.18%; the viability, T/C under setting [21] is 0.15%. The viability, T/C was 22.1% (second compound 10 µM, first compound 0.000949 µM); 19.7% (second compound 10 µM, first compound 0.003 µM); 17.4% under setting [22]; 13.8% under setting [23]; 0.25% under setting [24]; 0.21% under setting [25].

`COc1cc(C2c3cc4c(cc3C(OC3OC5COC(C)OC5C(O)C3O)C3COC(=O)C23)OCO4)cc(OC)c1O` (centres undefined): the viability, T/C is 94.6% and 80.4% (compound 0.00949 µM); 99.6% and 65.2% (compound 0.03 µM); 64.6% and 46.6% (compound 0.0949 µM); 45.4% and 38.4% (compound 0.3 µM); 44.4% and 41.1% (compound 0.949 µM); 35.4% and 29.4% (compound 3 µM). Further, under “curve of compound”, the IC50 is 198 nM and 87.6 nM.

On to `O=C(c1cc(Cc2n[nH]c(=O)c3ccccc23)ccc1F)N1CCN(C(=O)C2CC2)CC1`, for which the viability, T/C (compound 0.0316 µM) was 90.5% and 78.2%; the viability, T/C (compound 0.1 µM) is 99.3% and 78.3%; the viability, T/C (compound 0.316 µM) is 92.2% and 59.4%; the viability, T/C (compound 1 µM) is 75.5% and 42.5%; the viability, T/C (compound 3.16 µM) was 54.9% and 41.5%; the viability, T/C (compound 10 µM) was 43.3% and 30.9%. Moreover, where the note is “curve of compound”, the IC50 was 4910 nM and 633 nM.

For `CCN(c1cc(-c2ccc(CN3CCOCC3)cc2)cc(C(=O)NCc2c(C)cc(C)[nH]c2=O)c1C)C1CCOCC1` + NC1CC1c1ccc(-c2cccc(O)c2)cc1, the IC50 by setting is: under setting [1], greater than 3000 nM; under setting [2], greater than 3000 nM; under setting [3], greater than 3000 nM; under setting [4], greater than 3000 nM; under setting [5], greater than 3000 nM. Moreover, the viability, T/C is 86.5% under setting [6]; 84.8% under setting [7]; 81.9% under setting [8]; 73.5% under setting [9]; 79.4% (second compound 0.1 µM, first compound 0.949 µM); 66.9% (second compound 0.1 µM, first compound 3 µM). The viability, T/C was 96.8% under setting [10]; 92.2% under setting [11]; 83.4% under setting [12]; 89.9% under setting [13]; 86% (second compound 0.316 µM, first compound 0.949 µM); 70% (second compound 0.316 µM, first compound 3 µM). The viability, T/C by setting is: under setting [14], 105%; under setting [15], 93%; under setting [16], 88.2%; under setting [17], 91.5%; (second compound 1 µM, first compound 0.949 µM) 88.6%; (second compound 1 µM, first compound 3 µM) 79.2%. In addition, the viability, T/C runs as follows: under setting [18], 99.7%; under setting [19], 83.3%; under setting [20], 73.8%; under setting [21], 83.2%; (second compound 3.16 µM, first compound 0.949 µM) 88.6%; (second compound 3.16 µM, first compound 3 µM) 78.5%. Besides, the viability, T/C under setting [22] was 78.4%; the viability, T/C under setting [23] was 72.9%; the viability, T/C under setting [24] was 69.2%; the viability, T/C under setting [25] is 63%; the viability, T/C (second compound 10 µM, first compound 0.949 µM) was 71.1%; the viability, T/C (second compound 10 µM, first compound 3 µM) is 61.1%.

In the case of `CC(C)CC(NC(=O)CNC(=O)c1cc(Cl)ccc1Cl)B1OC(=O)CC(CC(=O)O)(C(=O)O)O1` (centres undefined) + NC1CCC(NC2CC2c2ccccc2)CC1, the IC50 turned out to be 6.36 nM under setting [1]; 7.23 nM under setting [2]; 6.46 nM under setting [3]; 6.58 nM under setting [4]; 6.38 nM under setting [5]. Further, the viability, T/C is, setting by setting: (second compound 0.1 µM, first compound 0.000316 µM) 101%; (second compound 0.1 µM, first compound 0.001 µM) 112%; (second compound 0.1 µM, first compound 0.00316 µM) 74.7%; (second compound 0.1 µM, first compound 0.01 µM) 32.5%; (second compound 0.1 µM, first compound 0.0316 µM) 11.9%; (second compound 0.1 µM, first compound 0.1 µM) 1.23%. The viability, T/C reads like this: (second compound 0.316 µM, first compound 0.000316 µM) 108%; (second compound 0.316 µM, first compound 0.001 µM) 110%; (second compound 0.316 µM, first compound 0.00316 µM) 86.4%; (second compound 0.316 µM, first compound 0.01 µM) 34.8%; (second compound 0.316 µM, first compound 0.0316 µM) 11.1%; (second compound 0.316 µM, first compound 0.1 µM) 0.94%. The viability, T/C by setting is: (second compound 1 µM, first compound 0.000316 µM) 101%; (second compound 1 µM, first compound 0.001 µM) 107%; (second compound 1 µM, first compound 0.00316 µM) 83%; (second compound 1 µM, first compound 0.01 µM) 29%; (second compound 1 µM, first compound 0.0316 µM) 10.3%; (second compound 1 µM, first compound 0.1 µM) 0.98%. Further, the viability, T/C was 101% (second compound 3.16 µM, first compound 0.000316 µM); 108% (second compound 3.16 µM, first compound 0.001 µM); 75.8% (second compound 3.16 µM, first compound 0.00316 µM); 34.5% (second compound 3.16 µM, first compound 0.01 µM); 9.37% (second compound 3.16 µM, first compound 0.0316 µM); 1.62% (second compound 3.16 µM, first compound 0.1 µM). Further, the viability, T/C is, setting by setting: (second compound 10 µM, first compound 0.000316 µM) 111%; (second compound 10 µM, first compound 0.001 µM) 106%; (second compound 10 µM, first compound 0.00316 µM) 79%; (second compound 10 µM, first compound 0.01 µM) 31.8%; (second compound 10 µM, first compound 0.0316 µM) 4.25%; (second compound 10 µM, first compound 0.1 µM) 0.93%.
